Results as given in paper PMC11574108, “4-Furanylvinylquinoline derivative as a new scaffold for the design of oxidative stress initiator and glucose transporter inhibitor drugs” (Scientific Reports, 2024).

Tests used:
Format in all cases: cell-based, human
p21 = experiment: Western blot, p21 protein level; settings: HCT 116 p53+/+, 0.5 and 1 µM, 24 and 48-h
Experimental: (§1) The cells (500,000) were seeded in 35 mm Petri dishes (Nunc) and incubated in a solution of the tested compound (0.5 µM and 1 µM) for 24 h and 48 h. The cells were then dissociated using trypsin, collected in Eppendorf tubes, and centrifuged at 2,000 rpm. Next, cell pellets were resuspended in complete RIPA buffer containing a Halt Protease Inhibitor Cocktail and Halt Phosphatase Inhibitor Cocktail along with 0.5 M EDTA (all reagents from Thermo Fisher Scientific) and lysed on ice for 20 min. Afterward, the lysates were sonicated and centrifuged at 10,000 rpm for 10 min at 4 °C. The obtained supernatants were collected for further analysis. The protein concentration was determined using a Micro BCA™ Protein Assay Kit (Thermo Fisher Scientific) according to the manufacturer’s procedure. Equal amounts of proteins (16 µg) were electrophoresed on SDS-Page gels and transferred onto nitrocellulose membranes. Novex Sharp Pre-Stained Protein Standard (Thermo Fisher Scientific) was used as a colored molecular weight marker. […]
The overexpression of p21 also causes cell cycle inhibition via its binding to the […]. […] The cell cycle in the U-251 cell line was inhibited precisely in the S-phase, and it is, therefore, likely that the p21 protein expression was not detected in the glioma cells tested (data not shown).

Fas = experiment: Western blot, Fas protein level
Experimental: as §1, with “marker. The membranes were blocked in 5% non-fat milk prepared in TPBS (PBS supplemented by 0.1% Tween-20) for 1 h. After blocking, the membranes were cut, and then incubated with specific primary monoclonal antibodies (all purchased from Cell Signaling) overnight at 4 °C.” for “marker.”

HCT 116 p53+/+ = experiment: Monolayer antiproliferative MTS assay; settings: 2D monolayer; for IC50: MTS, 72-h incubation
Description: (§2) The human colon carcinoma cell line HCT 116 with wild-type p53 (p53^+/+) and the human glioblastoma cell line U-251 were obtained from ATCC, while the HCT 116 with a p53 deletion (p53^−/−) was kindly provided by Prof. M. Rusin from the Maria Sklodowska-Curie Memorial Cancer Center and Institute of Oncology in Gliwice, Poland. The human chronic myelogenous leukaemia cell line K562 and the normal human cell dermal fibroblast cell line NHDF were purchased from Sigma-Aldrich and PromoCell, respectively. Both the HCT 116 and U-251 cell lines were cultured in Dulbecco’s modified Eagle’s medium (DMEM) supplemented with 10% inactivated foetal bovine serum (FBS). The DMEM for the NHDF contained 15% non-inactivated FBS. K562 cells were cultured in RPMI medium completed by 10% inactivated FBS. Additionally, the media were supplemented with antibiotics (streptomycin and penicillin – 1% v/v; Sigma-Aldrich). The cell culture was conducted in 75 cm^2 flasks (Nunc) under standard conditions (37 °C, 5% CO2 humidified atmosphere). Furthermore, the cell lines were frequently tested for mycoplasma using the qRT-PCR technique with specific Mycoplasma primers to confirm the lack of contamination.
(§3) The cells were seeded in 96-well plates (Nunc) with 5,000 or 4,000 cells per well for the cancer cells and NHDF, respectively, and incubated under standard conditions at 37 °C overnight. The culture media were then changed for freshly prepared solutions of the tested compounds in various concentrations. After 72-h incubation the antiproliferative assay was carried out as follows: the solutions of the compounds were changed in each well to 100 µL DMEM without phenol red and 20 µL of CellTiter 96 AQueous One Solution-MTS (Promega). The plates were incubated for 1 h at 37 °C, and the absorbance was then measured at 490 nm using a multi-plate reader (Synergy 4, BioTek). The experiment for each sample was repeated at least three times.
(§4) Additionally, the compounds were also tested for their cytotoxicity against normal cells – human dermal fibroblasts (NHDF).

HCT 116 p53-/- = experiment: Monolayer antiproliferative MTS assay; settings: 2D monolayer; for IC50: MTS, 72-h incubation
Description: as §2, §3, §4

IC50 (HCT 116 p53+/+): 69 ± 9 nM
IC50 (HCT 116 p53+/+; Homo sapiens, HCT-116, 72 h): < 100 nM
IC50 (HCT 116 p53-/-): 94 ± 10 nM
IC50 (HCT 116 p53-/-; Homo sapiens, HCT-116, 72 h): < 100 nM
SMILES: O=[N+]([O-])c1ccc(/C=C/c2ccnc3ccccc23)o1 [Compound 13]
p21 protein expression vs control (p21): more than two-fold increase
Fas protein level vs control (Fas; HCT 116 p53+/+, 24-h): more than three-fold increase
Fas protein expression vs untreated cells (Fas; HCT 116 p53-/-, 48-h): four times higher
SI (selectivity index) HCT 116 p53+/+ (HCT 116 p53+/+; relative to NHDF): 9.41
SI (selectivity index) HCT 116 p53-/- (HCT 116 p53-/-; relative to NHDF): 6.90
